# Assay results reported in patent US20260216198A1, “GPR35 MODULATORS” (ThirtyFiveBio Limited, priority 2023, published 2026).
# Target: T1, GPR35 (Homo sapiens, UniProt Q9HC97)
# T1 construct: expressed in transfected cells; host or cells: CHO-K1 cells co-expressing mitochondrial aequorin and Gα16
# Test: cellular GPR35 phospho-ERK HTRF assay (inhibition of lodoxamide-induced phospho-ERK signal)
# Format: cell-based
# Details: GPR35-CHO-K1-mt aequorin-Gα16 cell line; agonist lodoxamide at EC80; read-out: Activity Group (IC50, inhibition of GPR35 agonist-induced phospho-ERK signal)
# Source text: (§1) The functional GPR35 assay as described in the accompanying examples measures the ability of GPR35 modulators to inhibit a GPR35 agonist-induced phospho-ERK signal. This is expressed as the concentration of modulator required to reduce the phospho-ERK signal by 50 percent, i.e. the IC50; the signal window being defined as the difference between agonist plus modulator vehicle (no modulator) and agonist vehicle (no agonist) controls.
# as §1, with “functional” for “functional GPR35”, “assay” for “assay as”, “described” for “described in the accompanying examples”
# This assay is a cellular GPR35 phospho-ERK homogeneous time resolved fluorescence (HTRF) assay using the GPR35-CHO-K1-mt aequorin-Gα16 cell line. Upon activation of GPR35 with the agonist lodoxamide at EC80 concentration, ERK 1/2 is phosphorylated, and after lysis of the cell membrane, phospho-ERK1/2 (Thr202/Tyr204) is detected in a sandwich assay using two different specific antibodies, one labelled with Eu^3+-cryptate (donor) and the second with d2 (acceptor). When the dyes are in proximity, the excitation of the donor with a light source (laser or flash lamp) triggers a Fluorescence Resonance Energy Transfer (FRET) towards the acceptor, resulting in specific acceptor fluorescence (at 665 nm). The specific signal is directly proportional to the amount of phospho-ERK1/2 (Thr202/Tyr204) in the sample. Compounds that interfere with the levels of phospho-ERK1/2 (Thr202/Tyr204) will result in a low HTRF signal.
# T1 sequence (Q9HC97 whole entry): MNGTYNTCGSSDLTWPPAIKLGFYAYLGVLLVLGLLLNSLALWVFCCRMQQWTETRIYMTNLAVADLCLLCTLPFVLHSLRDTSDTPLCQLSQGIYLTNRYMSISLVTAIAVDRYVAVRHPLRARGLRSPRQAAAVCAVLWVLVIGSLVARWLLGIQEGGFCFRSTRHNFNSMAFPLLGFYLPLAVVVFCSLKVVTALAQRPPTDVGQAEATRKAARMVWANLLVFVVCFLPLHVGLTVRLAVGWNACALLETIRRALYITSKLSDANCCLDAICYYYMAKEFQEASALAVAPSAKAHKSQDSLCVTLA
row,IC50 [nM],Compound
1,1000 to 10000,"Cc1ncc(-c2cncc(C(=O)Nc3ccc(OCCc4ccccc4)cc3)n2)cc1C(=O)O [Example 54, 2-Methyl-5-(6-((4-phenethoxyphenyl)carbamoyl)pyrazin-2-yl)nicotinic acid]"
2,< 1000,"Cc1ccc(S(=O)(=O)Cc2ccc(NC(=O)c3cccc(-c4cnc(C)c(C(=O)O)c4)c3)cc2)cc1 [Example 58, 2-Methyl-5-[3-[[4-(p-tolylsulfonylmethyl)phenyl]carbamoyl]phenyl]pyridine-3-carboxylic acid]"
3,< 1000,"Cc1ncc(-c2cccc(C(=O)Nc3ccc(COC(C)c4ccccc4)cc3)c2)cc1C(=O)O (stereo not drawn) [Example 59, 2-Methyl-5-[3-[[4-(1-phenylethoxymethyl)phenyl]carbamoyl]phenyl]pyridine-3-carboxylic acid]"
4,< 1000,"COc1ccc(COCc2ccc(NC(=O)c3cccc(-c4cnc(C)c(C(=O)O)c4)c3)cc2F)cc1 [Example 63, 5-[3-[[3-Fluoro-4-[(4-methoxyphenyl)methoxymethyl]phenyl]carbamoyl]phenyl]-2-methyl-pyridine-3-carboxylic acid]"
5,< 1000,"COc1cccc(COCc2ccc(NC(=O)c3cccc(-c4cnc(C)c(C(=O)O)c4)c3)cc2F)c1 [Example 64, 5-[3-[[3-Fluoro-4-[(3-methoxyphenyl)methoxymethyl]phenyl]carbamoyl]phenyl]-2-methyl-pyridine-3-carboxylic acid]"
6,1000 to 10000,"O=C(O)c1cnc(O)c(-c2cccc(C(=O)Nc3ccc(OCCc4ccccc4)cc3)c2)c1 [Example 66, 6-Hydroxy-5-[3-[[4-(2-phenylethoxy)phenyl]carbamoyl]phenyl]pyridine-3-carboxylic acid]"

# Second part, the compound before the results:
row,Compound,IC50 [nM]
1,"Cc1ncc(-c2nccc(C(=O)Nc3ccc(OCCc4ccccc4)cc3)n2)cc1C(=O)O [Example 55, 2-Methyl-5-(4-((4-phenethoxyphenyl)carbamoyl)pyrimidin-2-yl)nicotinic acid]",1000 to 10000
2,"Cc1ncc(-c2cccc(C(=O)Nc3ccc(COCc4ccccc4)c(F)c3)c2)cc1C(=O)O [Example 56, 5-[3-[[4-(Benzyloxymethyl)-3-fluoro-phenyl]carbamoyl]phenyl]-2-methyl-pyridine-3-carboxylic acid]",< 1000
3,"Cc1ncc(-c2cccc(C(=O)Nc3cnn(CCc4ccccc4)c3)c2)cc1C(=O)O [Example 57, 2-Methyl-5-[3-[[1-(2-phenylethyl)pyrazol-4-yl]carbamoyl]phenyl]pyridine-3-carboxylic acid]",< 1000
4,"Cc1ncc(-c2cccc(C(=O)Nc3ccc(OC(C)C4CC4)cc3)c2)cc1C(=O)O (stereo not drawn) [Example 60, 5-[3-[[4-(1-Cyclopropylethoxy)phenyl]carbamoyl]phenyl]-2-methyl-pyridine-3-carboxylic acid]",< 1000
5,"COc1cc(COCc2ccccc2)ccc1NC(=O)c1cccc(-c2cnc(C)c(C(=O)O)c2)c1 [Example 61, 5-[3-[[4-(Benzyloxymethyl)-2-methoxy-phenyl]carbamoyl]phenyl]-2-methyl-pyridine-3-carboxylic acid]",1000 to 10000
6,"Cc1ncc(-c2cccc(C(=O)Nc3ccc(COCc4ccccn4)c(F)c3)c2)cc1C(=O)O [Example 62, 5-[3-[[3-Fluoro-4-(2-pyridylmethoxymethyl)phenyl]carbamoyl]phenyl]-2-methyl-pyridine-3-carboxylic acid]",1000 to 10000
7,"O=C(O)c1cnc(F)c(-c2cccc(C(=O)Nc3ccc(OCCc4ccccc4)cc3)c2)c1 [Example 65, 6-Fluoro-5-[3-[[4-(2-phenylethoxy)phenyl]carbamoyl]phenyl]pyridine-3-carboxylic acid]",< 1000
8,"O=C(O)c1cnnc(-c2cccc(C(=O)Nc3ccc(COCc4ccccc4)cc3)c2)c1 [Example 67, 6-[3-[[4-(Benzyloxymethyl)phenyl]carbamoyl]phenyl]pyridazine-4-carboxylic acid]",< 1000
9,"Cc1ncc(-c2cccc(C(=O)Nc3ccc(COCc4ccccc4)cc3)c2)nc1C(=O)O [Example 68, 6-[3-[[4-(Benzyloxymethyl)phenyl]carbamoyl]phenyl]-3-methyl-pyrazine-2-carboxylic acid]",< 1000
